≈ marks a conversion by molar mass, not a printed value. Like-named read-outs stand apart in the source and are kept apart here.

A short description of data set [1]: Dissolution testing (paddles 58 RPM) at three pH levels vs TOPAMAX 200 mg Tablets. Type of data set: physicochemical. The note with it: once the suspension matrix has degraded. As for the experimental part:
Two issues were observed during the dissolution testing of the oral topiramate suspension: (i) the suspension produces very poor inter-vessel reproducibility with very large error values up until near dissolution completion and (ii) when comparing the reference tablet formulation with the suspensions very poor comparison is seen as the tablets tend to complete dissolution at a much faster rate. It was determined that both of these issues are caused by the physiochemical characteristics of the topiramate suspension vehicle and the release of the active ingredient from the suspension matrix. Once the suspension matrix is broken down, the topiramate becomes readily bioavailable. […] Changes in the physical nature of the product can also be detected with this novel testing approach.
Process validation batches were manufactured using the final production equipment and facility to cGMP and compared to a reference product (TOPAMAX® 200 mg Tablets) using dissolution (paddles 58 RPM) at three pH levels (i.e., 1.2, 4.5 and 6.8). FIG. 7. […] Thus, data support the claim that the disclosed 10 mg/ml and 20 mg/ml oral liquid topiramate suspension products are bioequivalent to the reference product TOPAMAX® 200 mg tablets (Janssen Cilag, Ltd.).

The conditions of data set [2]: acetone, chloroform, dimethylsulfoxide, ethanol; cited from earlier work.
Data set [3] in a line: Solubility of topiramate in water and non-aqueous reagents. Type of data set: physicochemical. The note with it: for solubility: water. From the text: The present application discloses the first example of an aqueous suspension of topiramate with extended physicochemical stability and therapeutic bioavailability equivalent to that of commercially approved solid dose formulations. […] See, Physician's Desk Reference, 56th ed., pp. 2590-2595 (2002). Topiramate may be produced according to the processes disclosed in U.S. Pat. Nos. 4,513,006 and 5,387,700, the entire contents of which are herein incorporated by reference. Topiramate is sold in the United States under the trade name TOPAMAX® (Ortho-McNeil Pharmaceutical, Inc., Raritan, N.J., U.S.A). TOPAMAX® has been approved for use as an antiepileptic agent as an adjuvant therapy for patients with partial onset seizures, or primary generalized tonic-clonic seizures. See generally, Physician's Desk Reference, 56th ed., 2590-2595 (2002); see also, U.S. Pat. No. 4,513,006.
For drugs with low solubility and/or bioavailability at physiological pH and temperature, efforts to develop suspension formulations are often met with varying rates of success due to restrictive physiochemical parameters of the API and/or excipients. For example, while simply increasing the volume of diluent for low-solubility drugs may improve solubility, the large volume of diluent is often prohibitive from a patient perspective.
From a purely chemical perspective, topiramate is highly sensitive to heat (e.g., room temperature) and humidity (e.g., aqueous environment of liquid formulations). For example, abandoned U.S. Pat. App. No. 2006/0270611 discloses that topiramate is highly sensitive to hydrolysis in an aqueous medium and that any conventional aqueous oral solution would have a very limited shelf life. The chemical instability of topiramate is so well known, that pharmacists routinely monitor topiramate degradation by a change in physical appearance (e.g., tablet color changing from white to brown) and by an emergence of chemical breakdown byproducts (e.g., formation of sulfamate and sulphate ions and organic degradation compounds readily detected by HPLC). […]

In the case of `CC1(C)O[C@@H]2[C@@H](CO[C@@]3(COS(N)(=O)=O)OC(C)(C)O[C@@H]23)O1` [topiramate, 2,3:4,5-Bis-O-(1-methylethylidene)- -D-fructopyranose sulfamate], the BCS class result in data set [1] is recorded as “BCS Class I or III”. Besides, the “solubility in non-aqueous reagents” value in data set [2] is “freely soluble”. Further, the solubility in data set [3] (purified water, 25 °C, 25 degrees Celsius, read-out: observed solubility in purified water) came to 8300 µg/mL (≈ 24.5 mM); in data set [3] (5 °C, 5 degrees Celsius, read-out: observed solubility in water) it was 6400 µg/mL (≈ 18.9 mM). In addition, the “pH of maximum aqueous solubility” value in data set [3] (strongly alkaline solutions) is given as approximately 9.5 pH.

In general, solubility refers to how much of the substance goes into solution per volume.
